Results: patent US6541468B1, “Indolocarbazole derivatives useful for the treatment of neurodegenerative diseases and cancer” (Bayer Corporation, priority 1998, dated 2003)
Where two headings read alike, the source gives them in different places.

System: tau hyperphosphorylation
Experiment: Okadaic acid induced AD-like tau hyperphosphorylation in rat hippocampal brain slices
Format: cell-based
Protocol: Adult male Long-Evans rats were subjected to CO2 anesthesia and sacrificed by decapitation. Brains were rapidly removed (<2 min) and whole hippocampus was dissected using a blunt spatula. Hippocampi were cut into […] slices using a Mcllwain tissue chopper and placed into ice cold low Ca^2+ Krebs-Bicarbonate buffer (pH 7.) of the following composition in mM: NaCl, 124; KCL, 3.33; CaCl2, 0.01; KH2PO4, 1.25; MgSO4, 1.33; nAhco3, 25.7; D-glucose, 10; HEPES, 20. The slices were separated and placed, 5-8 per tube, into 5 mL of low Ca^2+ buffer and incubated for at least 30 min at 33-34° C. with water saturated oxygenation (95% O2, 5% CO2). After 30 min the solution was replaced with buffer containing a physiological level of Ca^2+ (1.3 mM) and incubated for an additional 30 min.
After a total equilibration period of at least 1 hr, the slices were pretreated with vehicle or inhibitor at concentrations ranging from 30 nM to 10 μM for 1 hr, and then exposed to either vehicle or okadaic acid fora 90 min. After treatment, the buffer was removed and the slices were sonicated for 10-20 see in 500 μl of homogenization buffer (100 mM KH2PO4, pH 6.5, 2 mM EGTA, 2 mM EDTA, 1 μM okadaic acid and the following protease inhibitors: aprotinin (10 μg/ml); leupeptin (10 μM); chymostatin (40 μM); PMSF (100 μM) and pepstatin (6 μg/ml).
Following sonication, the samples were centrifuged 16,000×g for 30 min and the supernatants were removed. After boiling of the supernatants for 5 mn at 100° C. the concentration of protein was determined by the BCA assay (Pierce) using BSA as standard and samples were normalized to equal protein concentration.
Aliquots of the heat stable supernatants were separated on 10% SDS-PAGE and Western-blotted with phosphorylation-sensitive tau mAb Tau-1 and PHF-tau mAb AT8 as described for SY5Y studies. Blots were developed by an ECL kit (Amersham Life Science). AT8 immunoreactivity was quantitated on Kodak X0OMAT AR film using a Biorad imaging densitometer GS 670, the strongest signals not exceeding an O.D. of 12.

[1] = adult rat hippocampal slices, means of triplicate determinations, read-out: Inhibition of tau hyperphos. in brain slices IC50

Structure (SMILES) | IC50 (adult rat hippocampal brain slices, FIG. 5, read-out: IC50 for prevention of tau hyperphosphorylation in brain slices) [µM] | IC50 [1] [µM]
CNC(=O)[C@]1(O)CC2CC1n1c3ccccc3c3c4c(c5c6ccccc6n2c5c31)C(=O)NC4=O (stereo partly drawn) [CII, 9,12-Methano-1H-diindolo[1,2,3-fg:3′,2′,1′-kl]pyrrolo[3,4-I][1,6] benzodiazocine-10-carboxamide, 2,3,9,10,11,12-hexahydro-10-hydroxy-N-methyl-1,3-dioxo-(9α,10β,12α)] | 0.1 | 0.18
COC(=O)[C@@]1(O)C[C@H]2C[C@@H]1n1c3ccccc3c3c4c(c5c6ccccc6n2c5c31)C(=O)NC4=O (relative stereo) [CIII, 9,12-Methano-1H-diindolo[1,2,3-fg:3′,2′,1′-kl]pyrrolo[3,4-I][1,6] benzodiazocine-10-carboxylic acid, 2,3,9,10,11,12-hexahydro-10-hydroxy-1,3-dioxomethyl ester, (9α,10β,12α)] |  | 0.9
